Laboratory results reported in ChEMBL document CHEMBL4813910, “Curse or Cure? A Perspective on the Developability of Aldehydes as Active Pharmaceutical Ingredients” (J Med Chem, 2020).

Assays:
[1] = Cmax in human erythrocytes at 37 mg/kg, po; format: ADME, organism-based, Erythrocyte; parameters: route oral, dose 37 mg/kg
[2] = Tmax in human plasma at 37 mg/kg, po by HPLC method; format: ADME, organism-based
[3] = Cmax in human plasma at 37 mg/kg, po by HPLC method; format: ADME, organism-based; parameters: route oral, dose 37 mg/kg
[4] = AUC (0 to 24 hrs) in human plasma at 37 mg/kg, po by HPLC method; format: ADME, organism-based; parameters: time < 24 hr, route oral, dose 37 mg/kg; conditions: in vivo
[5] = AUC (0 to 24 hrs) in human erythrocytes at 37 mg/kg, po by HPLC method; format: ADME, organism-based, Erythrocyte; parameters: time < 24 hr, route oral, dose 37 mg/kg
[6] = Half life in human plasma at 37 mg/kg, po by HPLC method; format: ADME, organism-based
[7] = Tmax in human erythrocytes at 37 mg/kg, po by HPLC method; format: ADME, organism-based, Erythrocyte
[8] = Half life in human erythrocytes at 37 mg/kg, po by HPLC method; format: ADME, organism-based, Erythrocyte
[9] = Ratio of drug level in human erythrocytes to plasma at 20 mg/kg, iv measured over 1 hr; format: ADME, organism-based
[10] = Bioavailability in human at 20 mpk, IM; format: ADME, organism-based; conditions: in vivo, dose 20 mg/kg
[11] = Half life in human at 20 mg/kg, IM; format: ADME, organism-based; conditions: in vivo
[12] = Cmax in human at 20 mg/kg, IM; format: ADME, organism-based; parameters: route […], dose 20 mg/kg; conditions: in vivo
[13] = Drug excretion in human at 20 mg/kg, IM measured for 24 hrs; format: ADME, organism-based; conditions: in vivo, read-out: Drug excretion
[14] = Volume of distribution at steady state in human at 20 mg/kg, IM; format: ADME, organism-based; conditions: in vivo
[15] = Renal clearance in human at 20 mg/kg, IM; format: ADME, organism-based; conditions: in vivo
[16] = Tmax in human at 20 mg/kg, IM; format: ADME, organism-based; conditions: in vivo
[17] = Protein binding in human plasma at 20 mg/kg, IM; format: ADME, organism-based; conditions: read-out: PPB (converted)
[18] = AUC (0 to 24 hrs) in mouse at 1 mg/kg, iv; format: ADME, organism-based; parameters: time < 24 hr, route intravenous, dose 1 mg/kg; conditions: in vivo
[19] = Oral bioavailability in mouse at 3 mg/kg; format: ADME, organism-based; conditions: in vivo
[20] = Volume of distribution at steady state in mouse at 1 mg/kg, iv; format: ADME, organism-based; conditions: in vivo, read-out: Vdss
[21] = Cmax in mouse at 3 mg/kg, po; format: ADME, organism-based; parameters: route oral, dose 3 mg/kg; conditions: in vivo
[22] = AUC (0 to 24 hrs) in mouse at 3 mg/kg, po; format: ADME, organism-based; parameters: time < 24 hr, route oral, dose 3 mg/kg; conditions: in vivo
[23] = Clearance in mouse at 1 mg/kg, iv; format: ADME, organism-based; conditions: in vivo
[24] = Tmax in mouse at 3 mg/kg, po; format: ADME, organism-based; conditions: in vivo
[25] = Half life in mouse at 1 mg/kg, iv; format: ADME, organism-based; conditions: in vivo
[26] = Drug excretion in human urine at 0.46 mg/kg dosed-dermally measured for 24 hrs; format: ADME, organism-based; conditions: topical or ocular, read-out: Drug excretion
[27] = Oral bioavailability in human at 0.03 mg/kg; format: ADME, organism-based; conditions: in vivo
[28] = Drug excretion in human urine measured for 24 hrs; format: ADME, tissue-based; conditions: read-out: Drug excretion
[29] = Tmax in human at 0.03 mg/kg, po; format: ADME, organism-based; conditions: in vivo
[30] = Dermal bioavailability in human at 0.46 mg/kg; format: ADME, organism-based; conditions: in vivo, topical or ocular
[31] = Half life in human at 0.03 mg/kg, po; format: ADME, organism-based; conditions: in vivo
[32] = Cmax in human serum at 2 g, po; format: ADME, cell-free; parameters: route oral, dose 2 g
[33] = Protein binding in human plasma at 2 g, po; format: ADME, cell-free
[34] = Tmax in human at 2 g, po; format: ADME; conditions: in vivo
[35] = Renal clearance in human at 0.5 g, iv; format: ADME; conditions: in vivo
[36] = Half life in human at 2 g, po; format: ADME; conditions: in vivo
[37] = Oral bioavailability in human at 2 g; format: ADME, organism-based; conditions: in vivo
[38] = Cmax in human at 2 g, po; format: ADME; parameters: route oral, dose 2 g; conditions: in vivo
[39] = Volume of distribution at steady state in human at 0.5 g, iv; format: ADME; conditions: in vivo
[40] = Half life in human at 0.5 g, iv; format: ADME; conditions: in vivo
[41] = Drug excretion in human urine at 2 g, po measured within 24 hrs; format: ADME, organism-based; conditions: in vivo
[42] = AUC (0 to infinity) in human serum at 2 g, po; format: ADME, cell-free; parameters: route oral, time infinity, dose 2 g
[43] = Cmax in human at 0.5 g, iv; format: ADME; parameters: route intravenous, dose 0.5 g; conditions: in vivo
[44] = Tmax in human serum at 2 g, po; format: ADME
[45] = Drug excretion in human urine at 0.5 g, iv measured within 24 hrs; format: ADME, organism-based; conditions: in vivo
[46] = Non-renal clearance in human at 0.5 g, iv; format: ADME; conditions: in vivo
[47] = Total clearance in human at 0.5 g, iv; format: ADME; conditions: in vivo
[48] = Tmax in human at 0.25%, OU administered once daily for 7 days; format: ADME; conditions: topical or ocular, time 7 day
[49] = Cmax in human at 0.25%, OU administered once daily for 7 days; format: ADME; parameters: dose 0.25 %, time 7 day; conditions: topical or ocular
[50] = Half life in human at 0.25%, OU administered once daily for 7 days; format: ADME; conditions: topical or ocular, time 7 day
[51] = Drug metabolism in human assessed as Tmax of acid metabolite at 0.25%, OU administered once daily for 7 days; format: ADME; conditions: topical_or_ocular, 168 h, time 7 day
[52] = Drug metabolism in human assessed as half life of acid metabolite at 0.25%, OU administered once daily for 7 days; format: ADME; conditions: topical_or_ocular, 168 h, time 7 day
[53] = Protein binding in human plasma incubated for 240 mins by equilibrium dialysis; format: ADME, cell-free; conditions: read-out: PPB (converted)
[54] = Half life in human liver supernatant; format: ADME, subcellular, Supernatent
[55] = Drug metabolism in human assessed as Cmax of acid metabolite at 0.25%, OU administered once daily for 7 days; format: ADME; parameters: dose 0.25 %, time 7 day; conditions: topical_or_ocular, 168 h
[56] = Drug metabolism in human assessed as AUC (0 to infinity) of acid metabolite at 0.25%, OU administered once daily for 7 days; format: ADME; parameters: time 7 day, dose 0.25 %; conditions: topical_or_ocular, 168 h
[57] = Elimination half life in human at 20 mg/kg, iv measured over 1 hr; format: ADME, organism-based; conditions: in vivo, read-out: beta t1/2 (converted)
[58] = AUC (0 to 24 hrs) in human at 20 mg/kg, iv measured over 1 hr; format: ADME, organism-based; parameters: route intravenous, time 1 hrs, dose 20 mg/kg; conditions: in vivo
[59] = Volume of distribution in human at 20 mg/kg, iv measured over 1 hr; format: ADME, organism-based; conditions: in vivo

O=Cc1c(O)cccc1OCc1ccc(C(=O)O)cc1 [TUCARESOL]
Cmax [1]: 2460 µM | Tmax [2]: 7.5 h | Cmax [3]: 271 µM | AUC [4]: 62 µM·h | AUC(0-t) at 24 h [5]: 579 µM·h | half-life [6]: 223 h | Tmax [7]: 24 h | half-life [8]: 120 h | Kp at 1 h [9]: < 11.2

[H]/N=C(/N)N[C@H]1[C@H](O)[C@@H](O)[C@H](O[C@@H]2O[C@@H](C)[C@](O)(C=O)[C@H]2O[C@@H]2O[C@@H](CO)[C@H](O)[C@@H](O)[C@@H]2NC)[C@@H](N/C(N)=N\[H])[C@@H]1O [STREPTOMYCIN]
bioavailability [10]: 80% | half-life [11]: 5.3 h | Cmax [12]: 43 µM | dose excreted at 24 h [13]: 39% | Vdss [14]: 1.77 L/kg | CL renal [15]: 30 mL/min | Tmax [16]: 0.5 h | fraction unbound [17]: 0.52

COCCNc1cc(NC(=O)N2CCCc3cc(CN4CCN(C)CC4=O)c(C=O)nc32)ncc1C#N [FGF401]
AUC [18]: 1.16 µM·h | F [19]: 21% | Vd [20]: 2.3 L/kg | Cmax [21]: 0.2 µM | AUC [22]: 0.25 µM·h | clearance [23]: 28 mL/min/kg | Tmax [24]: 2 h | half-life [25]: 1.4 h

CC(CC=O)CCCC(C)(C)O (stereo not given)
dose excreted at 24 h [26]: 90% | bioavailability [27]: 100% | dose excreted at 24 h [28]: 94% | Tmax [29]: 2.7 h | bioavailability [30]: 5% | half-life [31]: 3.28 h

SPIRAMYCIN
Cmax [32]: 3.7 µM | PPB [33]: 48% | Tmax [34]: 4 h | CL [35]: 144.2 mL/min | t1/2 [36]: 6.23 h | F [37]: 10% | Cmax [38]: 2 µM | Vdss [39]: 5.5 L/kg | t1/2 [40]: 5.54 h | Drug excretion [41]: 4.4% | AUC [42]: 12 µM·h | Cmax [43]: 2.7 µM | Tmax [44]: 3.3 h | Drug excretion [45]: 13.9% | CL [46]: 887 mL/min | CL [47]: 1.14 L/min

CN1CCC(=C2c3ccccc3CCn3c(C=O)cnc32)CC1 [ALCAFTADINE]
Tmax [48]: 0.25 h | Cmax [49]: 0.00015 µM | half-life [50]: 0.4 h | Tmax [51]: 1.05 h | t1/2 [52]: 2 h | fraction unbound at 4 h [53]: 0.61 | half-life [54]: < 0.25 h | Cmax [55]: 0.006 µM | AUC [56]: 0.0087 µM·h

O=Cc1c(O)cccc1OCCCCC(=O)O [VELARESOL]
half-life [57]: 2.2 h | AUC [58]: 5.18 µM·h | Vd [59]: 0.067 L/kg | Kp at 1 h [9]: 14.3
